From article PMC5834442, “Identifying inhibitors of the Leishmania inositol phosphorylceramide synthase with antiprotozoal activity using a yeast-based assay and ultra-high throughput screening platform” (Scientific Reports, 2018)
Read-outs that look alike come from different tables or passages of the source.

Legend:
HepG2 cells = assay: Mammalian cell cytotoxicity assay (CellTiter-Glo); type: cell-based, human; conditions: for IC50: Homo sapiens, -logIC50 mol against HepG2, read-out: PIC50 HepG2 (converted)
[1] = tested on: intra-macrophage Leishmania donovani amastigotes; assay: Intramacrophage Leishmania donovani assay (high content imaging); type: cell-based; conditions: Leishmania donovani
THP-1 macrophages = assay: Host cell toxicity in the intramacrophage assay; type: cell-based, human; conditions: for IC50: Homo sapiens, THP-1 host cells in intramacrophage assay, read-out: pIC50 THP-1 (converted)
[2] = tested on: L. donovani (MHOM/SD/62/1S-CL2D, LdBOB) axenic amastigotes; assay: Leishmania donovani axenic amastigote dose response assay (resazurin); type: cell-based; conditions: -logIC50 mol against L. donovani (LdBOB) axenic amastigotes, read-out: pIC50 Axenic (converted)
[3] = selectivity: pIC50 axenic minus pIC50 HepG2
[4] = intramacrophage L. donovani, read-out: pIC50 InMac (converted)
[5] = selectivity: pIC50 InMac minus pIC50 THP-1
[6] = selectivity, pIC50 axenic minus pIC50 HepG2
[7] = intramacrophage L. donovani amastigotes, read-out: pIC50 InMac (converted)
[8] = selectivity, pIC50 InMac minus pIC50 THP-1
[9] = −logIC50 M, L. donovani infected THP-1 macrophages, 96 hours, read-out: pIC50 against intra-macrophage L. donovani amastigotes (converted)

Compound	IC50 (HepG2 cells) [µM]	pSI v HepG2 (HepG2 cells; [3])	IC50 [1, 4] [µM]	IC50 (THP-1 macrophages) [µM]	pSI v THP-1 (THP-1 macrophages; [5])	IC50 [2] [µM]	pSI v HepG2 (HepG2 cells)	pSI v HepG2 (HepG2 cells; [6])	IC50 [1, 7] [µM]	pSI v THP-1 (THP-1 macrophages; [8])	IC50 [1, 9] [µM]
Cc1ncccc1Oc1ncc(Cl)cc1S(=O)(=O)Nc1cccc(Cl)c1F [AV207107-107A1]	> 100	1.09	> 50.1	> 50.1	0.00	8.13	–	–	–	–	–
O=C(O)C(F)(F)F.O=S(=O)(c1ccc2c(c1)CCN(Cc1ccc(F)cc1)CC2)n1cccc1 [CS100462-069A11B16]	> 100	–	3.31	31.6	0.98	0.0229	3.64	–	–	–	–
NC(=O)c1ccsc1NC(=O)c1ccc([N+](=O)[O-])s1 [ST/918837]	> 100	–	–	26.9	–	0.331	–	2.48	2.04	1.12	–
O=C(O)c1ccccc1Sc1ncnc2scc(-c3ccccc3)c12 [ST/837236]	> 100	–	–	> 50.1	–	9.77	–	1.01	40.7	0.09	–
O=C(O)C(F)(F)F.O=S(=O)(c1ccc2c(c1)CCN(Cc1cccnc1)CC2)n1ccc2c(F)cccc21 [CS100462-069A14B4]	52.5	–	2	33.9	1.23	0.447	2.07	–	–	–	–
COC1(C)CCC(=Cc2ccc(Cl)cc2)CC1(O)Cn1ccnc1 (stereo not shown) [ST/1099846]	72.4	1.39	–	> 50.1	–	2.95	–	–	–	–	–
N#Cc1ccc(N2CCCC[C@H]2c2cccnc2)c([N+](=O)[O-])c1.O=C(O)C(F)(F)F.O=C(O)C(F)(F)F [MA102475-064A1B46]	95.5	–	2.04	> 50.1	1.39	5.01	1.28	–	–	–	–
NC(=O)c1ccsc1NC(=O)c1ccc([N+](=O)[O-])s1 [compound 3]	–	–	–	–	–	–	–	–	–	–	2
CNC(=O)c1ccsc1NC(=O)c1ccc([N+](=O)[O-])s1 [ST/492114]	> 100	2.05	1.41	> 50.1	1.55	0.891	–	–	–	–	–
CCCCCNC(=O)c1c(O)c2ccccc2[nH]c1=O [ST/243992]	> 100	1.68	> 50.1	> 50.1	0.00	2.09	–	–	–	–	–
CC(=O)N1N=C(COc2ccc(Cl)cc2C)OC1c1cccs1 (stereo not shown) [ST/1455408]	97.7	1.10	> 50.1	> 50.1	0.00	7.76	–	–	–	–	–
CC(C)CCN1C(=O)C(N)C(=O)N(CC2CCCCC2)c2ccccc21 (stereo not shown) [VMTA/1987/36/2]	81.3	–	–	> 50.1	–	2	–	1.61	8.13	0.79	–
CC(=O)N1N=C(c2ccco2)OC1COc1ccc(Cl)cc1C (stereo not shown) [ST/1451140]	> 100	1.16	> 50.1	> 50.1	0.00	6.92	–	–	–	–	–
CS(=O)(=O)c1oc(-c2ccc(F)cc2)nc1S(=O)(=O)c1ccc(Cl)cc1 [ST/1032211]	17.4	1.60	4.27	3.63	-0.07	0.437	–	–	–	–	–
COc1ccc(S(=O)(=O)Nc2cc([N+](=O)[O-])ccc2Cl)cc1C(C)C [ST/1153644]	> 100	1.00	38.9	> 50.1	0.11	10	–	–	–	–	–
COc1cc(OC)cc(C(=O)Nc2nnc(-c3ccccc3Cl)o2)c1 [ST/709938]	85.1	2.04	26.3	> 50.1	0.28	0.776	–	–	–	–	–
O=[N+]([O-])c1ccc(NS(=O)(=O)c2ccccc2)c(-c2ccccc2)c1 [VDPP/14/72/1]	35.5	–	–	–	–	5.01	–	0.85	–	–	–

Compound	IC50 (HepG2 cells) [µM]	pSI v HepG2 (HepG2 cells; [3])	IC50 [1, 4] [µM]	IC50 (THP-1 macrophages) [µM]	pSI v THP-1 (THP-1 macrophages; [5])	IC50 [2] [µM]	pSI v HepG2 (HepG2 cells)	pSI v HepG2 (HepG2 cells; [6])	IC50 [1, 7] [µM]	pSI v THP-1 (THP-1 macrophages; [8])	IC50 [1, 9] [µM]
O=C(Nc1ccccc1Cl)C(=Cc1cccc(F)c1)C(=O)Nc1ccccc1Cl [ST/786453]	6.76	1.52	–	–	–	0.204	–	–	–	–	–
COc1ccc(CN2CCN(S(=O)(=O)c3ccc(OC(F)(F)F)cc3)CC2)cc1 [SC/122159]	> 100	2.56	35.5	> 50.1	0.15	0.275	–	–	–	–	–
Cc1cc(C)n2nc(S(=O)(=O)Nc3ccccc3[N+](=O)[O-])nc2n1 [ST/512740]	> 100	1.03	> 50.1	> 50.1	0.00	9.33	–	–	–	–	–
CN(C)S(=O)(=O)c1ccc(Cl)c(NS(=O)(=O)c2ccc(C(C)(C)C)cc2)c1 [ST/1238223]	> 100	1.17	> 50.1	> 50.1	0.00	6.76	–	–	–	–	–
CNC(=O)c1ccsc1NC(=O)c1ccc([N+](=O)[O-])s1 [compound 4]	–	–	–	–	–	–	–	–	–	–	1.26
COc1cccc(-c2csc(NC(=O)c3cccc(Cl)c3)c2C(=O)O)c1 [ST/266497]	> 100	1.15	45.7	> 50.1	0.04	7.08	–	–	–	–	–
Clc1ccc(Cn2nnc(-c3ccc(CN4CCOCC4)cc3)n2)cc1 [ST/852088]	> 100	–	–	–	–	3.24	–	1.49	–	–	–
O=C(O)C(F)(F)F.O=c1[nH]ccc2nc(NCCc3c[nH]cn3)nc(Nc3cccc(S(=O)(=O)N4CCOCC4)c3)c12 [N4347-22-1]	> 100	–	38.9	> 50.1	0.11	10	1.00	–	–	–	–
Cc1ccc(-c2ccnc(-c3ccc(O)cc3)n2)cc1 [SC/128042]	> 100	1.18	–	–	–	6.61	–	–	–	–	–
O=C(Nc1cccc(S(=O)(=O)Nc2ccccc2Cl)c1)c1ccc([N+](=O)[O-])o1 [ST/579040]	22.4	1.66	11.2	12	0.03	0.49	–	–	–	–	–
N#Cc1ccc(N2CCCC[C@H]2c2cccnc2)c([N+](=O)[O-])c1 [compound 5]	–	–	–	–	–	–	–	–	–	–	2
Cc1nc(-c2ccccc2)c(-c2ccnc(Nc3cc(S(N)(=O)=O)ccc3C)n2)s1 [N6896-93-B1]	> 100	1.81	–	–	–	1.55	–	–	–	–	–
Cc1ccc(S(=O)(=O)Nc2cc(Cl)c(Cl)cc2Cl)cc1 [ST/411835]	> 100	1.15	–	–	–	7.08	–	–	–	–	–
O=C(Nc1cc(-c2nc3ccccc3[nH]2)ccc1Cl)c1ccc(Cl)c([N+](=O)[O-])c1 [ST/1193938]	22.9	0.42	–	–	–	8.71	–	–	–	–	–
COc1ccccc1-c1nn(-c2c(C)cccc2C)c2[nH]c(=O)cc(C(F)(F)F)c12 [ST/1471361]	> 100	1.10	–	–	–	7.94	–	–	–	–	–
OCc1ccn2nc(-c3ccc(F)cc3)c(-c3ccncc3)c2c1 [U11871/14/3]	> 100	–	–	–	–	1.91	–	1.72	–	–	–
Cc1ccc(NC(=O)Nc2ccc(Cl)c([N+](=O)[O-])c2)cc1 [ST/875327]	22.9	–	–	–	–	9.55	–	0.38	–	–	–
